Here are results for twelve compounds from ChEMBL document CHEMBL1201862, “PubChem BioAssay data set” (2004).

Each structure is given as a SMILES string.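 Each compound was tested at five concentrations against cells in 96-well plates for 48 hours. GI50 = concentration required for 50% inhibition of growth.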 Calls of active or inactive are those of the source. Rule as the data show it: active = GI50 up to about 1.1 µM and inactive = higher. Bounds are passed on as bounds.

Among the test systems are EKVX; OVCAR-4; RPMI-8226; PC-3; KM12; MDA-MB-435; RXF 393; OVCAR-8; SNB-75; HCC 2998; IGROV-1; SK-MEL-2; HCT-15; A549; CCRF-CEM; DU-145; Hs-578T; OVCAR-3; SF-539.
Holding throughout (experiment): DTP human tumour cell line panel, 48 h

Usually GI50 stands for the concentration at which growth is held to half of that of the control.

On to `C/C1=C\CC[C@@]2(C)O[C@@H]2[C@H]2OC(=O)C(C)C2C[C@H]1O` (stereo partly drawn), for which the GI50 in the assay with EKVX, in the assay with OVCAR-4, in the assay with RPMI-8226, with PC-3, in the assay with KM12 and in the assay on MDA-MB-435 was > 100 µM (inactive) in each case. The GI50 in the assay on RXF 393, with OVCAR-8, in the assay with SNB-75, in the assay with HCC 2998, in the assay with IGROV-1 and with SK-MEL-2 was > 100 µM (inactive) in each case. Also, the GI50 in the assay with HCT-15 is > 100 µM; with A549, > 100 µM (inactive); in the assay with CCRF-CEM, > 100 µM (inactive); in the assay with DU-145, > 100 µM (inactive); with Hs-578T, 10.3 µM (inactive).
In the case of `O=C1/C(=C/c2ccc(O)cc2)NC(=S)N1CN1CCCCC1`, the GI50 in the assay on EKVX is > 100 µM (inactive); with OVCAR-4 it was 53.3 µM (inactive); in the assay with OVCAR-3, > 100 µM (inactive); in the assay with RPMI-8226, 28.6 µM (inactive); in the assay with PC-3, 53.2 µM (inactive); in the assay with KM12 it was > 100 µM (inactive). Also, the GI50 with MDA-MB-435 is 70.3 µM (inactive); in the assay on OVCAR-8, 53.5 µM (inactive); in the assay with SNB-75, > 100 µM (inactive); with IGROV-1, 98.9 µM (inactive); with SK-MEL-2, > 100 µM (inactive); in the assay on HCT-15, 31.8 µM. For the same compound, the GI50 with A549 was > 100 µM (inactive); in the assay with CCRF-CEM, 23.8 µM (inactive); in the assay with DU-145, 57.1 µM (inactive); in the assay on Hs-578T, 85.5 µM (inactive).
On to `CCNc1cc2c3c(c1)CCCN3CCC2`, for which the GI50 was 4.03 µM (inactive) in the assay on EKVX; 13 µM (inactive) with OVCAR-4; 2.32 µM (inactive) with OVCAR-3; 4.46 µM (inactive) with RPMI-8226; 16.7 µM (inactive) with PC-3; 15.7 µM (inactive) in the assay on KM12. Also, the GI50 was 3.44 µM (inactive) in the assay on MDA-MB-435; 72.8 µM (inactive) in the assay on RXF 393; 21.2 µM (inactive) in the assay on OVCAR-8; 18.1 µM (inactive) in the assay with SNB-75; 33 µM (inactive) with HCC 2998; 15.6 µM (inactive) in the assay on IGROV-1. For the same compound, the GI50 with SK-MEL-2 was 15.3 µM (inactive); with HCT-15, 19.6 µM; in the assay on A549, 17.9 µM (inactive); in the assay on CCRF-CEM, 2.38 µM (inactive); in the assay on DU-145, 28.1 µM (inactive); with SF-539, 20.9 µM (inactive). Also, in the assay on Hs-578T, the GI50 was 25.6 µM (inactive).
Turning to `N#CCCC1(CCC#N)CCCCCCC(CCC#N)(CCC#N)C(=O)C1=O`, the GI50 with EKVX, with OVCAR-4, in the assay on OVCAR-3, in the assay on PC-3, in the assay with KM12 and in the assay on MDA-MB-435 was > 100 µM (inactive) in each case. Further, the GI50 with RXF 393 is > 100 µM (inactive); in the assay with OVCAR-8 it was > 100 µM (inactive); in the assay with SNB-75 it was > 100 µM (inactive); in the assay on HCC 2998, 67.1 µM (inactive); in the assay on IGROV-1, > 100 µM (inactive); with SK-MEL-2, > 100 µM (inactive). Moreover, the GI50 is > 100 µM in the assay on HCT-15; > 100 µM (inactive) with A549; > 100 µM (inactive) in the assay with DU-145; > 100 µM (inactive) in the assay with SF-539; > 100 µM (inactive) with Hs-578T.
With `CC(=O)Nc1ccc(C2C(C(=O)Nc3ccccc3)=C(C)NC(C)=C2C(=O)Nc2ccccc2)cc1`, the GI50 in the assay on EKVX, in the assay on OVCAR-4, in the assay on OVCAR-3, in the assay with RPMI-8226, with KM12 and in the assay on RXF 393 was > 100 µM (inactive) in each case. Also, the GI50 in the assay with OVCAR-8 is > 100 µM (inactive); in the assay with SNB-75, > 100 µM (inactive); in the assay with HCC 2998 it was > 100 µM (inactive); in the assay on IGROV-1 it was > 100 µM (inactive); in the assay with SK-MEL-2, > 100 µM (inactive); with HCT-15, > 64.1 µM. For the same compound, the GI50 in the assay with A549 was > 100 µM (inactive); with CCRF-CEM, 35.2 µM (inactive); with SF-539, > 100 µM (inactive).
For the compound `COc1ccc(NC(C)=O)cc1C1CCC(=O)N1` (stereo not drawn), the GI50 in the assay with EKVX, with OVCAR-4, in the assay with OVCAR-3, in the assay on RPMI-8226, with PC-3 and with KM12 was > 100 µM (inactive) each time. Moreover, the GI50 with MDA-MB-435, in the assay on OVCAR-8, with SNB-75, in the assay on HCC 2998, with IGROV-1 and in the assay on SK-MEL-2 was > 100 µM (inactive) in each case. Moreover, the concentration for 50% growth inhibition (GI50) with HCT-15 is > 100 µM; with A549, > 100 µM (inactive); in the assay on CCRF-CEM, > 100 µM (inactive); with DU-145, > 100 µM (inactive); in the assay with SF-539, > 100 µM (inactive); in the assay with Hs-578T it was > 100 µM (inactive).
Regarding `CN(C)c1cccc(NC2=NCCO2)c1`, the GI50 in the assay on EKVX is 78.5 µM (inactive); in the assay on OVCAR-4, > 100 µM (inactive); in the assay with OVCAR-3 it was 59.4 µM (inactive); in the assay on RPMI-8226, 65.5 µM (inactive); in the assay with PC-3 it was 31 µM (inactive); in the assay on KM12, 40.5 µM (inactive). Also, the GI50 with MDA-MB-435 is 19.8 µM (inactive); in the assay on RXF 393 it was > 100 µM (inactive); in the assay on OVCAR-8, 66.8 µM (inactive); in the assay on SNB-75, 41.2 µM (inactive); in the assay on HCC 2998, 89.9 µM (inactive); in the assay on IGROV-1 it was > 100 µM (inactive). The GI50 is 14.9 µM (inactive) with SK-MEL-2; 45.1 µM in the assay with HCT-15; > 100 µM (inactive) in the assay on A549; 33 µM (inactive) with CCRF-CEM; > 100 µM (inactive) in the assay on DU-145; 46.6 µM (inactive) with SF-539. Also, the GI50 in the assay with Hs-578T is 43.6 µM (inactive).
Take `Cn1cc(C(=O)C2CCCCC2)ccc1=O`: the GI50 in the assay on EKVX, in the assay on OVCAR-4, with OVCAR-3, with RPMI-8226, with KM12 and with RXF 393 was > 100 µM (inactive) throughout. Moreover, the GI50 was > 100 µM (inactive) in the assay on OVCAR-8; > 100 µM (inactive) in the assay with SNB-75; > 100 µM (inactive) in the assay with HCC 2998; > 100 µM (inactive) in the assay with IGROV-1; > 100 µM (inactive) in the assay on SK-MEL-2; > 100 µM in the assay with HCT-15. Further, the GI50 with A549, in the assay with CCRF-CEM and with SF-539 was > 100 µM (inactive) throughout.
With `CC1(C)N=C(/C=N/O)C(C)(C)N1O`, the GI50 with EKVX, in the assay on OVCAR-4, in the assay with OVCAR-3, in the assay with RPMI-8226, in the assay with PC-3 and in the assay with KM12 was > 100 µM (inactive) in each case. Also, the GI50 with MDA-MB-435, in the assay on RXF 393, in the assay on OVCAR-8, with SNB-75, in the assay on HCC 2998 and in the assay on IGROV-1 was > 100 µM (inactive) in each case. Also, the GI50 in the assay on SK-MEL-2 is > 100 µM (inactive); with HCT-15, > 100 µM; in the assay with A549 it was > 100 µM (inactive); in the assay on CCRF-CEM, > 100 µM (inactive); in the assay with DU-145, > 100 µM (inactive); with SF-539, > 100 µM (inactive). In addition, in the assay with Hs-578T, the GI50 was > 100 µM (inactive).
For the compound `C=C1C(=O)OC2/C=C(\C=O)CC/C=C(\C)C(O)C[C@@H]12` (stereo partly drawn), the GI50 was 15.6 µM (inactive) in the assay on EKVX; 14.1 µM (inactive) with OVCAR-4; 9.46 µM (inactive) in the assay on OVCAR-3; 1.95 µM (inactive) in the assay on RPMI-8226; 5.77 µM (inactive) with KM12; 2.84 µM (inactive) in the assay with RXF 393. Besides, the GI50 was 3.17 µM (inactive) in the assay on OVCAR-8; 15.1 µM (inactive) with SNB-75; 17.8 µM (inactive) in the assay with HCC 2998; 17.5 µM (inactive) in the assay with IGROV-1; 10.5 µM (inactive) in the assay with SK-MEL-2; 3.65 µM with HCT-15. Besides, the results for the GI50 with A549, in the assay on CCRF-CEM and in the assay on SF-539 were 16.1 µM (inactive), 2.57 µM (inactive) and 14.2 µM (inactive), respectively.
In the case of `O=C1C2C(C(=O)N1c1ccccc1)C1c3ccccc3C2C2C(=O)N(c3ccccc3)C(=O)C21` (stereo not drawn), the GI50 in the assay with EKVX was > 100 µM (inactive); with OVCAR-4 it was 22.8 µM (inactive); in the assay with OVCAR-3, 20.7 µM (inactive); with RPMI-8226, 4.39 µM (inactive); in the assay on KM12, 6.1 µM (inactive); in the assay on RXF 393, 6.04 µM (inactive). The GI50 with OVCAR-8 is 7.08 µM (inactive); in the assay on SNB-75, 3.73 µM (inactive); with HCC 2998, 3.67 µM (inactive); in the assay with IGROV-1, > 100 µM (inactive); in the assay on SK-MEL-2 it was 2.54 µM (inactive); in the assay with HCT-15 it was 3.43 µM. Further, the GI50 in the assay on A549 is 5.86 µM (inactive); in the assay on CCRF-CEM it was 4.9 µM (inactive); with SF-539, 3.56 µM (inactive).
In the case of `CC1=NN(c2cccc(Cl)c2)C(=N/c2nc3ccccc3s2)/C1=C\c1cccs1`, the GI50 with EKVX is 24.1 µM (inactive); in the assay on OVCAR-4 it was 35.6 µM (inactive); in the assay with OVCAR-3 it was 13 µM (inactive); in the assay with RPMI-8226 it was 13.4 µM (inactive); in the assay with PC-3, 32.1 µM (inactive); with KM12, 43.8 µM (inactive). Besides, the GI50 was 55.6 µM (inactive) in the assay with MDA-MB-435; 51.3 µM (inactive) with RXF 393; 48.3 µM (inactive) with OVCAR-8; 28 µM (inactive) with SNB-75; 35 µM (inactive) with HCC 2998; 36 µM (inactive) with IGROV-1. The GI50 in the assay on SK-MEL-2 was 25.9 µM (inactive); with HCT-15, 32.8 µM; with CCRF-CEM, 19.6 µM (inactive); in the assay on DU-145, 44.4 µM (inactive); in the assay on SF-539 it was 42 µM (inactive); with Hs-578T, 26.1 µM (inactive).
